These are literature values, as cited in patent publication US20230110028A1, “OXYBATE POLYETHYLENE GLYCOL PRODRUGS” (Tris Pharma, Inc., priority 2021, published 2023).

For data set [1] the following is noted: in vivo.
The conditions of data set [2]: forms gamma-butyrolactone (GBL) at pH below 7.
Experiment in data set [3]: not given
This is another data set of the same source.

In the case of `O=C(O)CCCO` [oxybate, gamma hydroxybutyrate], the elimination half-life in data set [1] is 30 to 40 min. As a reminder, the Solubility is the concentration that dissolves in the medium under given conditions. With Hydroxypropyl-β-cyclodextrin, the Solubility was not below 600 mg/mL. With Sulfobutyl ether-β-cyclodextrin, the Solubility was not below 500 mg/mL. Consider `O=C(O)CCCO` [Sodium oxybate], for which, in data set [2], the “stability in acidic medium” value was “unstable”. Moreover, the “solubility in aqueous solutions” value in data set [3] is recorded as “very soluble”. Consider Randomly methylated-β-cyclodextrin, for which the Solubility was not below 500 mg/mL.
